Data published in publication PMC11882969 (Nature Communications, 2025).
Values joined by “and” are separate entries in the source; they are usually repeats but may differ in a detail not shown here. Equal entries are not always repeated.

How the values were obtained:
Format in all cases: cell-based
[1] = biological target: panel of 320 non-olfactory GPCRs (Homo sapiens, UniProt P46089)
[2] = biological target: panel of 320 non-olfactory GPCRs (Homo sapiens, UniProt P28221)
[3] = biological target: panel of 320 non-olfactory GPCRs (Homo sapiens, UniProt P43657)
[4] = biological target: panel of 320 non-olfactory GPCRs (Homo sapiens, UniProt Q99527)
[5] = biological target: panel of 320 non-olfactory GPCRs (Homo sapiens, UniProt Q9Y5Y4)
[6] = biological target: panel of 320 non-olfactory GPCRs (Homo sapiens, UniProt P30411)
[7] = biological target: panel of 320 non-olfactory GPCRs (Homo sapiens, UniProt P46092)
[8] = biological target: panel of 320 non-olfactory GPCRs (Homo sapiens, UniProt Q13324)
[9] = biological target: panel of 320 non-olfactory GPCRs (Homo sapiens, UniProt P35408)
[10] = biological target: panel of 320 non-olfactory GPCRs (Homo sapiens, UniProt Q9GZQ4)
[11] = biological target: panel of 320 non-olfactory GPCRs (Homo sapiens, UniProt Q7Z7M1)
[12] = biological target: panel of 320 non-olfactory GPCRs (Homo sapiens, UniProt Q96RI8)
[13] = biological target: panel of 320 non-olfactory GPCRs (Homo sapiens, UniProt P46091)
[14] = biological target: panel of 320 non-olfactory GPCRs (Homo sapiens, UniProt Q13585)
[15] = biological target: panel of 320 non-olfactory GPCRs (Homo sapiens, UniProt Q8IZF3)
[16] = biological target: panel of 320 non-olfactory GPCRs (Homo sapiens, UniProt P28335, I156V/I160V)
[17] = biological target: panel of 320 non-olfactory GPCRs (Homo sapiens, UniProt Q6U736)
[18] = biological target: panel of 320 non-olfactory GPCRs (Homo sapiens, UniProt Q5T6X5)
[19] = biological target: panel of 320 non-olfactory GPCRs (Homo sapiens, UniProt Q9NQS5)
[20] = biological target: panel of 320 non-olfactory GPCRs (Homo sapiens, UniProt Q9Y653)
[21] = biological target: panel of 320 non-olfactory GPCRs (Homo sapiens, UniProt P46663)
[22] = biological target: panel of 320 non-olfactory GPCRs (Homo sapiens, UniProt Q96RI0)
[23] = biological target: panel of 320 non-olfactory GPCRs (Homo sapiens, UniProt Q9P296)
[24] = biological target: panel of 320 non-olfactory GPCRs (Homo sapiens, UniProt Q8IYL9)
[25] = biological target: panel of 320 non-olfactory GPCRs (Homo sapiens, UniProt P25101)
[26] = biological target: panel of 320 non-olfactory GPCRs (Homo sapiens, UniProt P28335, I156V/I160V/N158G)
[27] = biological target: panel of 320 non-olfactory GPCRs (Homo sapiens, UniProt Q99679)
[28] = biological target: panel of 320 non-olfactory GPCRs (Homo sapiens, UniProt O75388)
[29] = biological target: panel of 320 non-olfactory GPCRs (Homo sapiens, UniProt P47898)
[30] = biological target: panel of 320 non-olfactory GPCRs (Homo sapiens, UniProt P25116)
[31] = biological target: panel of 320 non-olfactory GPCRs (Homo sapiens, UniProt P41594)

Chain of panel of 320 non-olfactory GPCRs (Homo sapiens, UniProt Q9P296) (Q9P296 whole entry): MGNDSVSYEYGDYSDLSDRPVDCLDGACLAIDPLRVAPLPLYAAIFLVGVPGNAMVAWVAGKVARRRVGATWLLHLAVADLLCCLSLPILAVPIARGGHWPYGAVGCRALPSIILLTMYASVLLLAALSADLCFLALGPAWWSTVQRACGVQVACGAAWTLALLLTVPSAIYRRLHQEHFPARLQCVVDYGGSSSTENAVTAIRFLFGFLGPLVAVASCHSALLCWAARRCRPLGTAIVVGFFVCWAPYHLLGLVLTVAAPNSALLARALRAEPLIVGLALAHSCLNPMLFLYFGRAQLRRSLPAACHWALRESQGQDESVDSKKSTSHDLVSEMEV
Chain of panel of 320 non-olfactory GPCRs (Homo sapiens, UniProt P35408) (P35408 whole entry): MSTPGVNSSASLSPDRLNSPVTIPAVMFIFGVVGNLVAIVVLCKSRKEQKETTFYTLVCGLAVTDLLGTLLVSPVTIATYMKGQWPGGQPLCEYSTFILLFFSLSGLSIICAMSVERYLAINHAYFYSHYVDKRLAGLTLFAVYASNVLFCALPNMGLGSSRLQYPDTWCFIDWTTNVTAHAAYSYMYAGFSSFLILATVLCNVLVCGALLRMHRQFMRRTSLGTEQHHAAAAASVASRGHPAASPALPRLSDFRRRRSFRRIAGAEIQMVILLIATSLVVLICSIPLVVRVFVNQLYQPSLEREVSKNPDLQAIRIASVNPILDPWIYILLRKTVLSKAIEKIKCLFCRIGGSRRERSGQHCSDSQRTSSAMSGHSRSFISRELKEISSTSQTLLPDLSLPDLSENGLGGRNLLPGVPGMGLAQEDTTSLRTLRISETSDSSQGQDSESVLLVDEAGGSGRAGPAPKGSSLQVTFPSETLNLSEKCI
Chain of panel of 320 non-olfactory GPCRs (Homo sapiens, UniProt P25116) (P25116 22-425): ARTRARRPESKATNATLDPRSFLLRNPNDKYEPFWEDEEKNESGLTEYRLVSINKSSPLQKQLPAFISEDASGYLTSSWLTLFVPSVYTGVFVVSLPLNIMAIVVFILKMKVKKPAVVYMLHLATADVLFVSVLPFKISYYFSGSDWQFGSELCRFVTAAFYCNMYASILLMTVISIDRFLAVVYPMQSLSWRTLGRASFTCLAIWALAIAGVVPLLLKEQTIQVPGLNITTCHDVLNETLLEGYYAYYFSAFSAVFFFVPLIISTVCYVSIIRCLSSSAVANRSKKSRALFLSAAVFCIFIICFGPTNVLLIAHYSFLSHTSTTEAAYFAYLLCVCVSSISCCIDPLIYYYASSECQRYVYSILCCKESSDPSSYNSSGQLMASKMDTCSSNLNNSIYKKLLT
Chain of panel of 320 non-olfactory GPCRs (Homo sapiens, UniProt P28335, I156V/I160V/N158G) (P28335 33-458 I156V/N158G/I160V): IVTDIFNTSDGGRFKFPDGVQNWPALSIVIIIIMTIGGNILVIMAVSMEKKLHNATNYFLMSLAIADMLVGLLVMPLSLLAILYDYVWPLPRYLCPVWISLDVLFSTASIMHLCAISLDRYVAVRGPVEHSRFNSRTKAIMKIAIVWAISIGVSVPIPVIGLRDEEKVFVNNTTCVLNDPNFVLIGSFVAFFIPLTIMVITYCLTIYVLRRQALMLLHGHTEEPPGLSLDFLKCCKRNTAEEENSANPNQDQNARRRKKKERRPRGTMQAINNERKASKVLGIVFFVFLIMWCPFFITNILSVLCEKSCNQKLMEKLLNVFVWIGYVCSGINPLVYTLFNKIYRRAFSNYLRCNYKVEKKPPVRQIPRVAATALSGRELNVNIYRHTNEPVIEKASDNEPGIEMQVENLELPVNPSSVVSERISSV
Chain of panel of 320 non-olfactory GPCRs (Homo sapiens, UniProt P46089) (P46089 whole entry): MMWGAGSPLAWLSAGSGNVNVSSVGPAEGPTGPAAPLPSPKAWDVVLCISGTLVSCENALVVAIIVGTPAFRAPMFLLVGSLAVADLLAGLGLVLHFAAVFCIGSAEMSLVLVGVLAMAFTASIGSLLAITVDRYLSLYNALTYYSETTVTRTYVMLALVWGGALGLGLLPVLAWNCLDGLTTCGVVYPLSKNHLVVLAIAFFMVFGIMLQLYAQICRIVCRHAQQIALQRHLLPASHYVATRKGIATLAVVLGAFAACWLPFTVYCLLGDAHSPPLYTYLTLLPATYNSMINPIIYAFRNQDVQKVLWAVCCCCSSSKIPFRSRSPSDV
Chain of panel of 320 non-olfactory GPCRs (Homo sapiens, UniProt Q13585) (Q13585 whole entry): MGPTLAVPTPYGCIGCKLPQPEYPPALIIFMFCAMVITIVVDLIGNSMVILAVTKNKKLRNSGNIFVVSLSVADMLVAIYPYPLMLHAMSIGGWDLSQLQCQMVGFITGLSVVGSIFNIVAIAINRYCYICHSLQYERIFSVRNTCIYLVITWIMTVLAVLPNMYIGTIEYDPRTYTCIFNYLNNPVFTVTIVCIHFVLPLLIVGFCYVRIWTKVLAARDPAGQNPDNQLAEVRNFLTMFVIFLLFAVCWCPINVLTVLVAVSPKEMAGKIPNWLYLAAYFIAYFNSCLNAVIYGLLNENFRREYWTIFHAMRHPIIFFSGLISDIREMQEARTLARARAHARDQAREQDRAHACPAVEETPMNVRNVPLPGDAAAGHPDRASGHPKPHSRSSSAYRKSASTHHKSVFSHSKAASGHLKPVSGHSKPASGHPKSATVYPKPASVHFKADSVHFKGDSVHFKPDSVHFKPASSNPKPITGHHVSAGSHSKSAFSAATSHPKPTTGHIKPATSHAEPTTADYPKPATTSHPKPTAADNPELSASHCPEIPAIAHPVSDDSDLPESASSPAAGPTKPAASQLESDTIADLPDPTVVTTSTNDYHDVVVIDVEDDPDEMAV
Chain of panel of 320 non-olfactory GPCRs (Homo sapiens, UniProt Q8IZF3) (Q8IZF3 22-695): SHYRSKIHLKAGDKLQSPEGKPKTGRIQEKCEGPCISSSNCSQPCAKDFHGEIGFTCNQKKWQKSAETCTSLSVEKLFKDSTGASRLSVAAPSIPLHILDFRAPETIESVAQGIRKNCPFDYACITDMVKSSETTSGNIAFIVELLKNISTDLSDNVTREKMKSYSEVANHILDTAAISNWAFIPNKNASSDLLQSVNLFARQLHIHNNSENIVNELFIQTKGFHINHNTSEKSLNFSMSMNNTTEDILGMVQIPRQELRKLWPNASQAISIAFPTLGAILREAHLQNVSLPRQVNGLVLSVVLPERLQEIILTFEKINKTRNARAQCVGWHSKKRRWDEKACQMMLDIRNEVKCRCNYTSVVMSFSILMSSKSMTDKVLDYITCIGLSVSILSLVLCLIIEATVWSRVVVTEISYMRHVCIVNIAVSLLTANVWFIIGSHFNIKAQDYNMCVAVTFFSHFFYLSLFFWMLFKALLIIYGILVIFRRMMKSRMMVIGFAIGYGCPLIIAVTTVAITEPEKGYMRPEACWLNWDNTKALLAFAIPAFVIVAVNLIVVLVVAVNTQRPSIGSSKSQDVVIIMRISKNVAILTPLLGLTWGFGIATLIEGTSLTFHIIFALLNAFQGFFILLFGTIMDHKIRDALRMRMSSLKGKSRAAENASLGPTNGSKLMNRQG
Chain of panel of 320 non-olfactory GPCRs (Homo sapiens, UniProt Q13324) (Q13324 whole entry): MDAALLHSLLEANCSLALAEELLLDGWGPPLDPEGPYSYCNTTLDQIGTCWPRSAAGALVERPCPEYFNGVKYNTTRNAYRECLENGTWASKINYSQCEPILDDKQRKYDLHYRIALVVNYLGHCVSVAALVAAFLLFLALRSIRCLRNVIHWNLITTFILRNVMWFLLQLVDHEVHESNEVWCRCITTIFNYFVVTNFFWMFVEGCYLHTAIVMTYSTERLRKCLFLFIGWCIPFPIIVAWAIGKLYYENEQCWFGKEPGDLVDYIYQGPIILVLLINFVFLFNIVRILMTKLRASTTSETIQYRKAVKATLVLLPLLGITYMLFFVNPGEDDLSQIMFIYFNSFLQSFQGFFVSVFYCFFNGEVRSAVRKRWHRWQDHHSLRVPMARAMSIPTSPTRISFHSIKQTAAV
Chain of panel of 320 non-olfactory GPCRs (Homo sapiens, UniProt P46092) (P46092 whole entry): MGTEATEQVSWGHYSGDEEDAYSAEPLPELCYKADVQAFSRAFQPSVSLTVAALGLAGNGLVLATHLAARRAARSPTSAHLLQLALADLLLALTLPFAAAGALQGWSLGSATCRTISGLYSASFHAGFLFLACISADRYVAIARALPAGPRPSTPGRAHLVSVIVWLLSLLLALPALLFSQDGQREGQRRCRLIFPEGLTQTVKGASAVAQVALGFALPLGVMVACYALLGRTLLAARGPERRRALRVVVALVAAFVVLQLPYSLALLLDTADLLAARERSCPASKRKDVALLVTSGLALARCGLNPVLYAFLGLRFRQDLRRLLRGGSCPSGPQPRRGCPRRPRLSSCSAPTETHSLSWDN
Chain of panel of 320 non-olfactory GPCRs (Homo sapiens, UniProt Q5T6X5) (Q5T6X5 19-926): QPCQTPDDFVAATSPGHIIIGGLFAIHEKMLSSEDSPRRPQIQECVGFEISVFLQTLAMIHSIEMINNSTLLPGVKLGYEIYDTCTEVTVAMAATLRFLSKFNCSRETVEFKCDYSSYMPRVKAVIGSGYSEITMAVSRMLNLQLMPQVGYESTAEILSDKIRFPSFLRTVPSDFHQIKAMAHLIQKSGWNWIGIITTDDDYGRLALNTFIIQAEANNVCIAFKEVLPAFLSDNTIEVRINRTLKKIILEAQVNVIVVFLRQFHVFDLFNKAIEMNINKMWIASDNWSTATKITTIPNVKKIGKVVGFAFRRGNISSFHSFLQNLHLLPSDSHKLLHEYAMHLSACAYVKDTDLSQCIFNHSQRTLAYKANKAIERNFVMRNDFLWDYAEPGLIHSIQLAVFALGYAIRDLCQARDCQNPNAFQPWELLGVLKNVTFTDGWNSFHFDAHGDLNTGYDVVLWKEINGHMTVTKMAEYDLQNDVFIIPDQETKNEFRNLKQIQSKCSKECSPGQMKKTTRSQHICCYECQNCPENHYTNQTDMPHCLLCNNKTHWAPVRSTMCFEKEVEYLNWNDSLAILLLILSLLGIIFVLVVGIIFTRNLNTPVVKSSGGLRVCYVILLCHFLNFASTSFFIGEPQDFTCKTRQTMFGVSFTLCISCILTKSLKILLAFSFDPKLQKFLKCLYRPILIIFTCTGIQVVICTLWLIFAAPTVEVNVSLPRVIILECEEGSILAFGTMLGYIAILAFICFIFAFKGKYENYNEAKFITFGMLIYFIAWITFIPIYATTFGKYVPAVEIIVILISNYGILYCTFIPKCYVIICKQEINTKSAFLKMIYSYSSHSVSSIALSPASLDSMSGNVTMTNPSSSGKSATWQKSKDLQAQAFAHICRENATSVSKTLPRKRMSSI

Compound | Fold of Basal RLU [1] | Fold of Basal RLU [2] | Fold of Basal RLU [3] | Fold of Basal RLU [4] | Fold of Basal RLU [5] | Fold of Basal RLU [6] | Fold of Basal RLU [7] | Fold of Basal RLU [8] | Fold of Basal RLU [9] | Fold of Basal RLU [10] | Fold of Basal RLU [11] | Fold of Basal RLU [12] | Fold of Basal RLU [13] | Fold of Basal RLU [14] | Fold of Basal RLU [15] | Fold of Basal RLU [16] | Fold of Basal RLU [17] | Fold of Basal RLU [18] | Fold of Basal RLU [19] | Fold of Basal RLU [20] | also measured
Cc1cc(C(=O)NC(C)(c2ccco2)c2ccco2)nn1-c1cccc(C(F)(F)F)c1 [‘4936] | 1 fold and 1.1 fold and 1.4 fold | 1.2 fold and 1.1 fold | 0.7 fold and 0.8 fold | 1.9 and 1.3 and 1.5 and 1.4 | 2.3 fold and 1.8 fold and 1.6 fold and 1.5 fold | 1.1 fold and 1.3 fold and 0.9 fold and 1.2 fold | 0.9 fold and 1.2 fold and 1 fold | 0.6 and 0.7 | 1.2 fold and 0.9 fold and 1 fold and 1.3 fold | 0.9 fold and 0.8 fold and 0.7 fold | 0.9 and 0.6 and 1.1 | 0.8 fold and 1.3 fold and 0.7 fold | 1 fold and 1.2 fold and 1.5 fold and 1.3 fold | 0.8 and 0.6 and 0.5 and 0.7 | 1 fold and 1.2 fold and 0.6 fold | 0.7 and 0.4 and 0.8 | 1.3 fold and 1.4 fold and 1.1 fold and 1.8 fold | 0.9 fold and 1.1 fold and 0.6 fold and 1 fold | 1 fold and 0.9 fold and 1.6 fold | 2.1 fold and 1.6 fold and 1.2 fold and 1.1 fold | Fold of Basal RLU [21]: 1.3 and 1.1 and 0.9 and 1.4; Fold of Basal RLU [22]: 1.2 and 1 and 0.8 and 0.9; Fold of Basal RLU [23]: 0.9 fold and 1 fold and 1.1 fold; Fold of Basal RLU [24]: 1.1 fold and 1 fold; Fold of Basal RLU [25]: 0.9 fold and 0.8 fold and 0.6 fold; Fold of Basal RLU [26]: 0.8 fold and 1 fold and 1.3 fold; Fold of Basal RLU [27]: 2.5 and 1.9 and 1.6 and 2.2; Fold of Basal RLU [28]: 1.4 fold and 1.1 fold and 1.3 fold and 1.2 fold; Fold of Basal RLU [29]: 2.1 fold and 2.3 fold; Fold of Basal RLU [30]: 1.4 fold and 1.3 fold and 1.1 fold; Fold of Basal RLU [31]: 1.1 and 1.2 and 0.9 and 0.8
COC(=O)[C@@](C)(NC(=O)c1cc(C)n(-c2cccc(C(F)(F)F)c2)n1)c1cccs1 [‘1350] | 1 fold and 1.1 fold and 1.4 fold and 1.3 fold | 1.1 fold and 0.9 fold and 1.2 fold | 0.9 fold and 1 fold and 1.1 fold and 0.7 fold | 1.2 and 1.1 and 0.9 | 1.1 fold and 1.4 fold and 1.5 fold | 0.9 fold and 1 fold and 0.8 fold | 0.9 fold and 1 fold and 1.2 fold and 1.3 fold | 0.8 and 0.9 | 1.7 fold and 1.2 fold and 1.5 fold | 0.7 fold and 0.9 fold and 0.8 fold | 1.1 and 0.9 and 1.3 and 0.7 | 0.9 fold and 1.2 fold and 1.1 fold and 0.8 fold | 1 fold and 0.8 fold and 1.4 fold | 0.9 and 0.7 and 1.3 and 1 | 1.1 fold and 0.9 fold | 0.4 and 0.8 | 2.3 fold and 1.9 fold | 0.7 fold and 0.9 fold and 1.1 fold | 1 fold and 1.1 fold and 1.2 fold and 1.4 fold | 1.4 fold and 1.2 fold and 1.5 fold | Fold of Basal RLU [21]: 1.6 and 1.3 and 1.1; Fold of Basal RLU [22]: 1.5 and 1.6 and 1; Fold of Basal RLU [23]: 0.9 fold and 0.8 fold and 1.3 fold and 1.5 fold; Fold of Basal RLU [24]: 0.9 fold and 0.8 fold and 1 fold; Fold of Basal RLU [25]: 1.1 fold and 0.9 fold and 0.8 fold; Fold of Basal RLU [26]: 0.9 fold and 1.1 fold and 0.7 fold and 1 fold; Fold of Basal RLU [27]: 1 and 0.8 and 1.3; Fold of Basal RLU [28]: 1.1 fold and 0.9 fold and 1 fold and 0.8 fold; Fold of Basal RLU [29]: 1.5 fold and 2.2 fold; Fold of Basal RLU [30]: 1 fold and 1.1 fold and 1.3 fold; Fold of Basal RLU [31]: 0.8 and 0.6 and 0.7
